Test results reported in paper PMC11864979, “First-in-class ultralong-target-residence-time p38α inhibitors as a mitosis-targeted therapy for colorectal cancer” (Nature Cancer, 2025).
Where two headings read alike, the source gives them in different places.

What was measured:
Experiment in all cases: selectivity profiling in a panel of 340 wild-type kinases (Reaction Biology Europe)
Type in all cases: binding
[1] = target: T1, 340 wild-type kinases (Homo sapiens, UniProt O96017)
T1 construct: purchased Reaction Biology Europe

[2] = target: T2, 340 wild-type kinases (Homo sapiens, UniProt P41279)
T2 construct: purchased Reaction Biology Europe

[3] = target: T3, 340 wild-type kinases (Homo sapiens, UniProt O75716)
T3 construct: purchased Reaction Biology Europe

[4] = target: T4, 340 wild-type kinases (Homo sapiens, UniProt P53671)
T4 construct: purchased Reaction Biology Europe

[5] = target: T5, 340 wild-type kinases (Homo sapiens, UniProt Q8TDX7)
T5 construct: purchased Reaction Biology Europe

[6] = target: T6, 340 wild-type kinases (Homo sapiens, UniProt Q15418)
T6 construct: purchased Reaction Biology Europe

[7] = target: T7, 340 wild-type kinases (Homo sapiens, UniProt O60566)
T7 construct: purchased Reaction Biology Europe

[8] = target: T8, 340 wild-type kinases (Homo sapiens, UniProt P29597)
T8 construct: purchased Reaction Biology Europe

[9] = target: T9, 340 wild-type kinases (Homo sapiens, UniProt P31749)
T9 construct: purchased Reaction Biology Europe

[10] = target: T10, 340 wild-type kinases (Homo sapiens, UniProt P49759)
T10 construct: purchased Reaction Biology Europe

[11] = target: T11, 340 wild-type kinases (Homo sapiens, UniProt P43403)
T11 construct: purchased Reaction Biology Europe
T11 sequence (P43403 1-619): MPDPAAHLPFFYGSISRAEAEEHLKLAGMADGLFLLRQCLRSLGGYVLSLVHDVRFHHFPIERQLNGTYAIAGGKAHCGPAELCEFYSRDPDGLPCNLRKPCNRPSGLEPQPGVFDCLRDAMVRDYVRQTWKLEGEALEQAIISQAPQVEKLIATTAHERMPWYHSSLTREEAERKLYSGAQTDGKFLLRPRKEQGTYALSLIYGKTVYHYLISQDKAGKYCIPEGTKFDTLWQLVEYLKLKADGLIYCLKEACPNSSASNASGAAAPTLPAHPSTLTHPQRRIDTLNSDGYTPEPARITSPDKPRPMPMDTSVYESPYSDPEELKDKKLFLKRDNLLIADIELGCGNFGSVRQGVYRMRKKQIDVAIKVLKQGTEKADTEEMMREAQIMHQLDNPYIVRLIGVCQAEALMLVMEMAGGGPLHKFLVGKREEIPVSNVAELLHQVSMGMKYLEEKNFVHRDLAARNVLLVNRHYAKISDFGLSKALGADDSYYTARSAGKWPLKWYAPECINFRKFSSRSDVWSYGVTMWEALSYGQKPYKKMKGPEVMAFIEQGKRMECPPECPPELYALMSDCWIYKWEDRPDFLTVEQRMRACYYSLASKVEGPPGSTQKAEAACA

[12] = target: T12, 340 wild-type kinases (Homo sapiens, UniProt Q13627)
T12 construct: purchased Reaction Biology Europe

[13] = target: T13, 340 wild-type kinases (Homo sapiens, UniProt Q9H422)
T13 construct: purchased Reaction Biology Europe

[14] = target: T14, 340 wild-type kinases (Homo sapiens, UniProt Q9BYT3)
T14 construct: purchased Reaction Biology Europe

[15] = target: T15, 340 wild-type kinases (Homo sapiens, UniProt P06493)
T15 construct: purchased Reaction Biology Europe

[16] = target: T16, 340 wild-type kinases (Homo sapiens, UniProt P42684)
T16 construct: purchased Reaction Biology Europe
T16 sequence (P42684 whole entry): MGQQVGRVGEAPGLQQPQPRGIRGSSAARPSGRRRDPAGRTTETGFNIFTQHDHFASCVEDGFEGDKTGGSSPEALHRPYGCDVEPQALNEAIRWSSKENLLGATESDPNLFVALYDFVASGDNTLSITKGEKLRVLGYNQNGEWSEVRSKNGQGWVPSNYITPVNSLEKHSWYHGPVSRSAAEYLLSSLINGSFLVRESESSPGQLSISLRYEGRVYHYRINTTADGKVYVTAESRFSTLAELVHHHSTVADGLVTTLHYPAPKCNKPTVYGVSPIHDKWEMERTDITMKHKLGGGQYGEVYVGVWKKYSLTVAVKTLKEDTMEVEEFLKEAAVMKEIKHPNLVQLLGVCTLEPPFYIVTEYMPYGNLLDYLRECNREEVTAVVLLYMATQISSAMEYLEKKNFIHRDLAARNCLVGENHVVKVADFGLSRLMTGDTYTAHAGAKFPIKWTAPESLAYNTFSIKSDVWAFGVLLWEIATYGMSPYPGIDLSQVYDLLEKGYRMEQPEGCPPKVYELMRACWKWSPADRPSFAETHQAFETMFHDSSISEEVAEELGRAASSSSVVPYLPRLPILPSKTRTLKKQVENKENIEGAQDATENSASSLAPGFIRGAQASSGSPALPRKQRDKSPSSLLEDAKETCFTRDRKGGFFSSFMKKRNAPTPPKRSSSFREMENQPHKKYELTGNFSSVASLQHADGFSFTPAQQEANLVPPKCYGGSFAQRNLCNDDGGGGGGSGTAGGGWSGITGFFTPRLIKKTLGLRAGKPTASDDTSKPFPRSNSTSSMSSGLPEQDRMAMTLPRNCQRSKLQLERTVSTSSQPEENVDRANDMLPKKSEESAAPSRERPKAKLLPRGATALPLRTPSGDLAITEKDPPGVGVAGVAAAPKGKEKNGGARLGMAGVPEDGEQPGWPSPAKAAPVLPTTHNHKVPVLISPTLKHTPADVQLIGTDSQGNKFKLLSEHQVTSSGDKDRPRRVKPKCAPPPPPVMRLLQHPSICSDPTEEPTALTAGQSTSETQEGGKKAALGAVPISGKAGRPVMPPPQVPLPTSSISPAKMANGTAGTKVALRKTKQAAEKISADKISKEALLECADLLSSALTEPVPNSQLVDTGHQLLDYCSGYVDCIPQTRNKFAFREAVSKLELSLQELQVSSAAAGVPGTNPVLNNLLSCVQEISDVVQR

T15 sequence (P06493 whole entry): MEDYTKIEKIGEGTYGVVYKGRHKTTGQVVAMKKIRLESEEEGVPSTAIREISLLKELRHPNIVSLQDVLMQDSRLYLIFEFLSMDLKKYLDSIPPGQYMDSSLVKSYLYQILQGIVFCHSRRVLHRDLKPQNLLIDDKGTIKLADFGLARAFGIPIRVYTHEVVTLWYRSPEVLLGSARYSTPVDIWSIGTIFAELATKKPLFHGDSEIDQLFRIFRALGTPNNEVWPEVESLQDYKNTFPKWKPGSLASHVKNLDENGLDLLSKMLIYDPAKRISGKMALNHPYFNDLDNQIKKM
T9 sequence (P31749 whole entry): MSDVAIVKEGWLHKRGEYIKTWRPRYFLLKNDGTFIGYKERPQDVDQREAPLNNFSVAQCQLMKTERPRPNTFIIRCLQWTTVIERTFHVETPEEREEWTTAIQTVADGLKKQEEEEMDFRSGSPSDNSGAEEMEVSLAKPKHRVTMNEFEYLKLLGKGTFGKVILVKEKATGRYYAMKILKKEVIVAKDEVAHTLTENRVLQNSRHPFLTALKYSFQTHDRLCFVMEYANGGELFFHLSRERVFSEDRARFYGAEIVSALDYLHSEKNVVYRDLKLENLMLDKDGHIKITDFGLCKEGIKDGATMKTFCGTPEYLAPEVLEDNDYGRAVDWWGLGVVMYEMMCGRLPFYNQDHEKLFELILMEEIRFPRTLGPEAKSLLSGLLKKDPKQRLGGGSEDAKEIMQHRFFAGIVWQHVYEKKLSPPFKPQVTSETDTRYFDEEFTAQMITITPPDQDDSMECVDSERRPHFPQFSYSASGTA
T7 sequence (O60566 whole entry): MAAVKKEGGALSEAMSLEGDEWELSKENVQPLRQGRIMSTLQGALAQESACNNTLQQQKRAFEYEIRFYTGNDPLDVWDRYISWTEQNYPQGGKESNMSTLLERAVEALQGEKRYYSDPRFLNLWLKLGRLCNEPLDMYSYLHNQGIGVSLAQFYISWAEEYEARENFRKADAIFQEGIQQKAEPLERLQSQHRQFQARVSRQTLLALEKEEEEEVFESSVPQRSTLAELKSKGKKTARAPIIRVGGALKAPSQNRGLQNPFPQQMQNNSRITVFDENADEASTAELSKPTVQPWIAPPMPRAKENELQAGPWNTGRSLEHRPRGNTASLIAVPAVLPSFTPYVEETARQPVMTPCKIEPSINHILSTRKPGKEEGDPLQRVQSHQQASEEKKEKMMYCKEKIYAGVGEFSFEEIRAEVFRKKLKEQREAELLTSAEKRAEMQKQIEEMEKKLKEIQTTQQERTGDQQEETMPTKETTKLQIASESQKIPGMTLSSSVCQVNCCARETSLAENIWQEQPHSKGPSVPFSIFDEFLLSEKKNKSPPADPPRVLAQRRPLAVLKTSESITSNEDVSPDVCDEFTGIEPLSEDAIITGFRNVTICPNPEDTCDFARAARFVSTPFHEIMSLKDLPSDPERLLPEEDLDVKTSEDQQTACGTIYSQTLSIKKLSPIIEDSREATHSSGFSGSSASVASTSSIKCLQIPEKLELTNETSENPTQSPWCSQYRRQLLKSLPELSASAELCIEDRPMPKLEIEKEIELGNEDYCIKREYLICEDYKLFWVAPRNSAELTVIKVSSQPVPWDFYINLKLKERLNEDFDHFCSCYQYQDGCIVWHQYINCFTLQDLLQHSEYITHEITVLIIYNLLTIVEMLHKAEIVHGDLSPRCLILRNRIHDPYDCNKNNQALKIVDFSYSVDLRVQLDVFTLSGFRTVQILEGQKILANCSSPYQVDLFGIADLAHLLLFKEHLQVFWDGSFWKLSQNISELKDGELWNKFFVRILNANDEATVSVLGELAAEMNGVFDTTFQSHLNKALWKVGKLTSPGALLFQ
T4 sequence (P53671 whole entry): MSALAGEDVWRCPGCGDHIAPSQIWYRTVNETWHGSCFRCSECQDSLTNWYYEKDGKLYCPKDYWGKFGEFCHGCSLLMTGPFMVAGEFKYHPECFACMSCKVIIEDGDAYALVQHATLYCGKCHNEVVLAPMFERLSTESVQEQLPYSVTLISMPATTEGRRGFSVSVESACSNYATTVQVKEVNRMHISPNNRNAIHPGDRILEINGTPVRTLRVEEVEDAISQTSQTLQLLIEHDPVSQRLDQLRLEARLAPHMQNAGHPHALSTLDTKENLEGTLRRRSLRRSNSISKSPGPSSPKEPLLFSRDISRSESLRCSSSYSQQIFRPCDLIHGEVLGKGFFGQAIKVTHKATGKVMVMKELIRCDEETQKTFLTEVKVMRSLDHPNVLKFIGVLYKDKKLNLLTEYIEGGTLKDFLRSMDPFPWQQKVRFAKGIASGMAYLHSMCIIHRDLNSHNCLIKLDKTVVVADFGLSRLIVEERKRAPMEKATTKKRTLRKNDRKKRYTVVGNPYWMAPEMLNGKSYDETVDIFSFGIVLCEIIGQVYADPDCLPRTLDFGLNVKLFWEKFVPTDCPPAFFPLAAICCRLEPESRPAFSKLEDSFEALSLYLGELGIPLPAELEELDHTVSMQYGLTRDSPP
T2 sequence (P41279 whole entry): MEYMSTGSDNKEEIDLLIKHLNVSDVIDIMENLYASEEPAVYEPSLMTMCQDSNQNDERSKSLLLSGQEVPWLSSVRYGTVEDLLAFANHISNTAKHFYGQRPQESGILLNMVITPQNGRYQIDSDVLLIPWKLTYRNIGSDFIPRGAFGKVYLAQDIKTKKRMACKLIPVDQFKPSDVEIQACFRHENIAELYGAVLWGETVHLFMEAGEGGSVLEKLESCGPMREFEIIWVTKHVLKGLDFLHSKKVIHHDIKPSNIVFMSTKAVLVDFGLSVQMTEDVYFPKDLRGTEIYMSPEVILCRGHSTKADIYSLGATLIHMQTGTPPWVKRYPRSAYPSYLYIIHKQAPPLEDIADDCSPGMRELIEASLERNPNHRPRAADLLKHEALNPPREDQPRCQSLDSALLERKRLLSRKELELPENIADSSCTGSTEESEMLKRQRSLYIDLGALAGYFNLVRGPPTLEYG
T3 sequence (O75716 whole entry): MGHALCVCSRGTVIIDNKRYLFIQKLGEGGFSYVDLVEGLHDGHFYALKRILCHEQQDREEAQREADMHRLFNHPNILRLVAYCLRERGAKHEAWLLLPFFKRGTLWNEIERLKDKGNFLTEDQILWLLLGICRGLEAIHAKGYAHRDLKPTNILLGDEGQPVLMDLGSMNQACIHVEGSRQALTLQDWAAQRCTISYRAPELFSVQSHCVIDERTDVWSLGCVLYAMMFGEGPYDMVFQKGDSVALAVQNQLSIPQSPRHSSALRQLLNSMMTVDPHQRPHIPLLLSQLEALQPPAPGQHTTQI
T10 sequence (P49759 whole entry): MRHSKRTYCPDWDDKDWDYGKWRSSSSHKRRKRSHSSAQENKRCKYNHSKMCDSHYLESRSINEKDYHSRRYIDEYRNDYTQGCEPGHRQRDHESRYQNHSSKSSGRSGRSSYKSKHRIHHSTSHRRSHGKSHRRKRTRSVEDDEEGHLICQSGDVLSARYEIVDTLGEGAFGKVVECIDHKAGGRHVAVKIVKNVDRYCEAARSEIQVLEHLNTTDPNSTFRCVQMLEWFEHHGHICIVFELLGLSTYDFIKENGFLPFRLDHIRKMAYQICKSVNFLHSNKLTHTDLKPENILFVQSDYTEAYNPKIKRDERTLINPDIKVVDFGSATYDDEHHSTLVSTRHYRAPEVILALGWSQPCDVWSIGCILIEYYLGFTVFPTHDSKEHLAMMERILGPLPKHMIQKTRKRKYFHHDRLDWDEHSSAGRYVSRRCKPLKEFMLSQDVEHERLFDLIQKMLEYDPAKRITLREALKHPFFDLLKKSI

For `CNC(=O)c1ccc2c(c1)C(=O)c1ccc(Nc3ccc(F)c(NC(=O)C4CC4)c3)cc1CC2` [Compound 2015], the remaining activity at 0.2 µM ([1]; 0.2 µM 2015, read-out: CHK2 residual activity) was 102%, the remaining activity at 1 µM ([1]; 1 µM 2015, read-out: CHK2 residual activity) was 94.9% and the remaining activity at 0.2 µM ([1]; CHK2, 0.2 µM, read-out: residual activity) was 102%. The remaining activity at 1 µM ([1]; CHK2, 1 µM, read-out: residual activity) was 94.9%, the remaining activity at 0.2 µM ([2]; 0.2 µM 2015, read-out: COT residual activity) was 98.6% and the remaining activity at 1 µM ([2]; 1 µM 2015, read-out: COT residual activity) was 97.4%. It also gave a remaining activity at 0.2 µM ([2]; COT, 0.2 µM, read-out: residual activity) of 98.6%, a remaining activity at 1 µM ([2]; COT, 1 µM, read-out: residual activity) of 97.4% and a remaining activity at 0.2 µM ([3]; 0.2 µM 2015, read-out: TSF1 residual activity) of 95.7%. For the same compound, the remaining activity at 1 µM ([3]; 1 µM 2015, read-out: TSF1 residual activity) was 85.7%, the remaining activity at 0.2 µM ([3]; TSF1, 0.2 µM, read-out: residual activity) was 95.7% and the remaining activity at 1 µM ([3]; TSF1, 1 µM, read-out: residual activity) was 85.7%. For the same compound, the remaining activity at 0.2 µM ([4]; 0.2 µM 2015, read-out: LIMK2 residual activity) was 114%, the remaining activity at 1 µM ([4]; 1 µM 2015, read-out: LIMK2 residual activity) was 103% and the remaining activity at 0.2 µM ([4]; LIMK2, 0.2 µM, read-out: residual activity) was 114%. For the same compound, the remaining activity at 1 µM ([4]; LIMK2, 1 µM, read-out: residual activity) was 103%, the remaining activity at 0.2 µM ([5]; 0.2 µM 2015, read-out: NEK7 residual activity) was 119% and the remaining activity at 1 µM ([5]; 1 µM 2015, read-out: NEK7 residual activity) was 110%. It also gave a remaining activity at 0.2 µM ([5]; NEK7, 0.2 µM, read-out: residual activity) of 119%, a remaining activity at 0.2 µM ([6]; 0.2 µM 2015, read-out: RPS6KA1 residual activity) of 100% and a remaining activity at 1 µM ([6]; 1 µM 2015, read-out: RPS6KA1 residual activity) of 94.3%. For the same compound, the remaining activity at 0.2 µM ([6]; RPS6KA1, 0.2 µM, read-out: residual activity) was 100%, the remaining activity at 1 µM ([6]; RPS6KA1, 1 µM, read-out: residual activity) was 94.3% and the remaining activity at 0.2 µM ([7]; 0.2 µM 2015, read-out: BUB1B residual activity) was 94.1%. For the same compound, the remaining activity at 1 µM ([7]; 1 µM 2015, read-out: BUB1B residual activity) was 95.8%, the remaining activity at 0.2 µM ([7]; BUB1B, 0.2 µM, read-out: residual activity) was 94.1% and the remaining activity at 1 µM ([7]; BUB1B, 1 µM, read-out: residual activity) was 95.8%. It also gave a remaining activity at 0.2 µM ([8]; 0.2 µM 2015, read-out: TYK2 residual activity) of 103%, a remaining activity at 1 µM ([8]; 1 µM 2015, read-out: TYK2 residual activity) of 96.3% and a remaining activity at 0.2 µM ([8]; TYK2, 0.2 µM, read-out: residual activity) of 103%. The remaining activity at 1 µM ([8]; TYK2, 1 µM, read-out: residual activity) was 96.3%, the remaining activity at 0.2 µM ([9]; 0.2 µM 2015, read-out: AKT1 residual activity) was 100% and the remaining activity at 1 µM ([9]; 1 µM 2015, read-out: AKT1 residual activity) was 98.7%. It also gave a remaining activity at 0.2 µM ([9]; AKT1, 0.2 µM, read-out: residual activity) of 100%, a remaining activity at 1 µM ([9]; AKT1, 1 µM, read-out: residual activity) of 98.7% and a remaining activity at 0.2 µM ([10]; 0.2 µM 2015, read-out: CLK1 residual activity) of 98.6%. For the same compound, the remaining activity at 1 µM ([10]; 1 µM 2015, read-out: CLK1 residual activity) was 93%, the remaining activity at 0.2 µM ([10]; CLK1, 0.2 µM, read-out: residual activity) was 98.6% and the remaining activity at 1 µM ([10]; CLK1, 1 µM, read-out: residual activity) was 93%. The remaining activity at 0.2 µM ([11]; 0.2 µM 2015, read-out: ZAP70 residual activity) was 122%, the remaining activity at 1 µM ([11]; 1 µM 2015, read-out: ZAP70 residual activity) was 100% and the remaining activity at 0.2 µM ([11]; ZAP70, 0.2 µM, read-out: residual activity) was 122%. The remaining activity at 1 µM ([11]; ZAP70, 1 µM, read-out: residual activity) was 100%, the remaining activity at 0.2 µM ([12]; 0.2 µM 2015, read-out: DYRK1A residual activity) was 86.7% and the remaining activity at 1 µM ([12]; 1 µM 2015, read-out: DYRK1A residual activity) was 90.3%. The remaining activity at 0.2 µM ([12]; DYRK1A, 0.2 µM, read-out: residual activity) was 86.8%, the remaining activity at 1 µM ([12]; DYRK1A, 1 µM, read-out: residual activity) was 90.3% and the remaining activity at 0.2 µM ([13]; 0.2 µM 2015, read-out: HIPK3 residual activity) was 104%. The remaining activity at 1 µM ([13]; 1 µM 2015, read-out: HIPK3 residual activity) was 104%, the remaining activity at 0.2 µM ([13]; HIPK3, 0.2 µM, read-out: residual activity) was 104% and the remaining activity at 1 µM ([13]; HIPK3, 1 µM, read-out: residual activity) was 104%. It also gave a remaining activity at 0.2 µM ([14]; 0.2 µM 2015, read-out: STK33 residual activity) of 99.1%, a remaining activity at 1 µM ([14]; 1 µM 2015, read-out: STK33 residual activity) of 96.3% and a remaining activity at 0.2 µM ([14]; STK33, 0.2 µM, read-out: residual activity) of 99.1%. For the same compound, the remaining activity at 1 µM ([14]; STK33, 1 µM, read-out: residual activity) was 96.3%, the remaining activity at 0.2 µM ([15]; 0.2 µM 2015, read-out: CDK1/CycA2 residual activity) was 99.4% and the remaining activity at 0.2 µM ([15]; 0.2 µM 2015, read-out: CDK1/CycB1 residual activity) was 92.8%. The remaining activity at 0.2 µM ([15]; 0.2 µM 2015, read-out: CDK1/CycE1 residual activity) was 100%, the remaining activity at 1 µM ([15]; 1 µM 2015, read-out: CDK1/CycA2 residual activity) was 101% and the remaining activity at 1 µM ([15]; 1 µM 2015, read-out: CDK1/CycB1 residual activity) was 83.7%. It also gave a remaining activity at 1 µM ([15]; 1 µM 2015, read-out: CDK1/CycE1 residual activity) of 90.1%, a remaining activity at 0.2 µM ([15]; CDK1/CycA2, 0.2 µM, read-out: residual activity) of 99.3% and a remaining activity at 1 µM ([15]; CDK1/CycA2, 1 µM, read-out: residual activity) of 101%. The remaining activity at 0.2 µM ([15]; CDK1/CycB1, 0.2 µM, read-out: residual activity) was 92.8%, the remaining activity at 1 µM ([15]; CDK1/CycB1, 1 µM, read-out: residual activity) was 83.7% and the remaining activity at 0.2 µM ([15]; CDK1/CycE1, 0.2 µM, read-out: residual activity) was 100%. It also gave a remaining activity at 1 µM ([15]; CDK1/CycE1, 1 µM, read-out: residual activity) of 90.1%, a remaining activity at 0.2 µM ([16]; 0.2 µM 2015, read-out: ABL2 residual activity) of 107% and a remaining activity at 1 µM ([16]; 1 µM 2015, read-out: ABL2 residual activity) of 102%. It also gave a remaining activity at 0.2 µM ([16]; ABL2, 0.2 µM, read-out: residual activity) of 107% and a remaining activity at 1 µM ([16]; ABL2, 1 µM, read-out: residual activity) of 102%.
